# How the values were obtained:
# [1] = tested on: patients with nephrolithiasis that were found to have hypercalciuria (>200 mg/24 hr); experiment: 24 hour urine calcium before and on vitamin K2 (MK7, MK4) in nephrolithiasis patients with hypercalciuria; assay type: in vivo, human
# Excerpt: Patients with hypercalciuria who were not on anticoagulants were routinely recommended vitamin K2 supplementation. […] All patients also received standard treatments for any other stone risk factor found in their work-up. As is routine, these patients were asked to repeat the 24 hr urine test, to evaluate response to treatment. […] This compared favorably to the 30-50% expected decrease in calcium when a thiazide diuretic is prescribed. See Martins, M. C., et al., Br J Urol, 1996. 78(2): p. 176-80. Furthermore, the calcium lowering effect of vitamin K2 was independent of the presence and treatment of other stone risk factors.
# The average decrease in urine calcium in all eight patients was about 43%. […] (Table 1)
# hypercalciuric subjects = conditions: cited from earlier work
# [2] = MK7 100-150 mcg daily or bid for at least 3 weeks
compound,measurement,setting,value
CC(C)=CCC/C(C)=C/CC/C(C)=C/CC/C(C)=C/CC1=C(C)C(=O)c2ccccc2C1=O [MK4],"% difference of urine calcium, high dose MK4 vs low dose MK7","[1]; F 74, MK4 15 mg daily vs MK7 120 mcg daily, same background",−40%
same,High Dose MK4 Urine Calcium,"[1]; F 74, same background regimen, changed from MK7 120 mcg daily to MK4 15 mg daily",191 mg/24 hr
same,additional decrease in 24 hour urine calcium excretion,"[1]; one patient, change from MK7 120 mcg daily to MK4 15 mg daily",about 40%
CC(C)=CCC/C(C)=C/CC/C(C)=C/CC/C(C)=C/CC/C(C)=C/CC/C(C)=C/CC/C(C)=C/CC1=C(C)C(=O)c2ccccc2C1=O [MK7],On Vitamin K Urine Calcium,"[1]; Case 1, no prior regimen, before 650 mg/24 hr, on allopurinol 300 mg daily + MK7 100 mcg daily",262 mg/24 hr
same,% diff of urine calcium,"[1]; Case 1, on allopurinol 300 mg daily + MK7 100 mcg daily vs before vitamin K",−60%
same,% diff of urine calcium,"[1]; Case 2, MK7 50 mcg bid with KCitrate, MgOxide, MgCitrate, Vitamin B6, allopurinol vs before vitamin K",−54%
same,On Vitamin K Urine Calcium,"[1]; Case 2, no prior regimen, before 312 mg/24 hr, on KCitrate 99 mg bid, MgOxide 90 mg bid, MgCitrate 90 mg bid, Vitamin B6 7.5 mg bid, allopurinol 300 mg daily, MK7 50 mcg bid",145 mg/24 hr
same,% diff of urine calcium,"[1]; Case 3, KCitrate 200 mg daily + MK7 120 mcg bid vs before vitamin K",−51%
same,On Vitamin K Urine Calcium,"[1]; Case 3, no prior regimen, before 321 mg/24 hr, on KCitrate 200 mg daily + MK7 120 mcg bid",158 mg/24 hr
same,% diff of urine calcium,"[1]; Case 4, KCitrate 1080 mg tid + MK7 100 mcg bid vs before vitamin K",−61%
same,On Vitamin K Urine Calcium,"[1]; Case 4, before KCitrate 1080 mg bid, 320 mg/24 hr, on KCitrate 1080 mg tid + MK7 100 mcg bid",124 mg/24 hr
same,On Vitamin K Urine Calcium,"[1]; Case 5, before 326 mg/24 hr on allopurinol 300 mg daily, KCitrate, MgOxide, MgCitrate, Vitamin B6, on allopurinol 100 mg daily, same background + MK7 120 mcg bid",225 mg/24 hr
same,% diff of urine calcium,"[1]; Case 6, MK7 120 mcg bid with HCTZ, KCitrate, MgOxide, MgCitrate, Vitamin B6 vs before vitamin K",+2%
same,On Vitamin K Urine Calcium,"[1]; Case 6, before HCTZ 12.5 mg daily, 332 mg/24 hr, on HCTZ 12.5 mg daily, KCitrate 99 mg bid, MgOxide 90 mg bid, MgCitrate 90 mg bid, Vitamin B6 7.5 mg bid, MK7 120 mcg bid",340 mg/24 hr
same,% diff of urine calcium,"[1]; Case 7, MK7 150 mcg daily added to stable background regimen vs before vitamin K",−73%
same,On Vitamin K Urine Calcium,"[1]; Case 7, before 314 mg/24 hr on KCitrate, MgOxide, MgCitrate, Vitamin B6, HCTZ 25 mg bid, prednisone, vitD3, allopurinol, same regimen + MK7 150 mcg daily",84 mg/24 hr
same,% diff of urine calcium,"[1]; Case 8, MK7 120 mcg daily with CaCitrate, KCitrate, MgOxide, MgCitrate, Vitamin B6 vs before vitamin K",−15%
same,On Vitamin K Urine Calcium,"[1]; Case 8, before CaCitrate 630 mg bid, 376 mg/24 hr, on CaCitrate 630 mg tid, KCitrate 99 mg bid, MgOxide 90 mg bid, MgCitrate 90 mg bid, Vitamin B6 7.5 mg bid, MK7 120 mcg daily",321 mg/24 hr
same,Low Dose MK7 UCa,"[1]; F 74, CaCitrate 630 mg tid, KCitrate 99 mg bid, MgOxide 90 mg bid, MgCitrate 90 mg bid, Vitamin B6 7.5 mg bid, MK7 120 mcg daily",321 mg/24 hr
same,average decrease in urine calcium in all eight patients,[1]; [2],about 43%
same,increase in urinary calcium in the one patient that showed no response,[1]; [2],2%
same,patients that exhibited a decrease in urinary calcium of greater than about 50%,[1]; [2],5 out of 8
same,"% diff of urine calcium, mean","[1]; mean of cases 1-8, on vitamin K (MK7) vs before",−43%
same,"% diff of urine calcium, median","[1]; median of cases 1-8, on vitamin K (MK7) vs before",−52%
same,average decrease in the excretion of calcium in the urine,"[1]; seven of the eight patients, 24 hr urine",49%
CC1=C(C/C=C(\C)CCC[C@H](C)CCC[C@H](C)CCCC(C)C)C(=O)c2ccccc2C1=O [vitamin K1],subjects that had a decrease in urinary calcium,hypercalciuric subjects; hypercalciuric subjects,60%
same,average reduction in urinary calcium,hypercalciuric subjects; patients with a similar level of pre-treatment hypercalciuria,less than 15%
vitamin K2,decrease of urinary calcium excretion,"[1]; cases 1, 2 and 3, vitamin K administered together with other agents",> 50%
same,decrease in urine calcium levels,"[1]; many patients, within a month of therapy",more than 40%
